This note sets out measurements from patent US9273033B2, “Substituted pyridone derivatives as PDE10 inhibitors” (Merck Sharp & Dohme Corp., priority 2012, dated 2016).

The structures appear in SMILES notation.

The assay addresses human PDE10A2 (Homo sapiens (Human), UniProt Q9Y233). The assay can be described thus: PDE10 fluorescence polarization (IMAP FP) inhibition assay. The class given is biochemical. The conditions noted are these: human PDE10A2, FAM-labeled cAMP substrate, read-out: PDE10A Ki. The procedure, abridged:
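Cytoplasmic lysate of AD293 cells transiently expressing human PDE10A2 (diluted to ~20% substrate conversion) incubated 30 min at room temperature with 50 nM FAM-cAMP in Tris pH 7.2 buffer with MgCl2, DTT. Activity read by IMAP fluorescence polarization. 0% inhibition set with 1% DMSO, 100% with reference PDE10 inhibitor.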

Chain of human PDE10A2 (Q9Y233 267-1055): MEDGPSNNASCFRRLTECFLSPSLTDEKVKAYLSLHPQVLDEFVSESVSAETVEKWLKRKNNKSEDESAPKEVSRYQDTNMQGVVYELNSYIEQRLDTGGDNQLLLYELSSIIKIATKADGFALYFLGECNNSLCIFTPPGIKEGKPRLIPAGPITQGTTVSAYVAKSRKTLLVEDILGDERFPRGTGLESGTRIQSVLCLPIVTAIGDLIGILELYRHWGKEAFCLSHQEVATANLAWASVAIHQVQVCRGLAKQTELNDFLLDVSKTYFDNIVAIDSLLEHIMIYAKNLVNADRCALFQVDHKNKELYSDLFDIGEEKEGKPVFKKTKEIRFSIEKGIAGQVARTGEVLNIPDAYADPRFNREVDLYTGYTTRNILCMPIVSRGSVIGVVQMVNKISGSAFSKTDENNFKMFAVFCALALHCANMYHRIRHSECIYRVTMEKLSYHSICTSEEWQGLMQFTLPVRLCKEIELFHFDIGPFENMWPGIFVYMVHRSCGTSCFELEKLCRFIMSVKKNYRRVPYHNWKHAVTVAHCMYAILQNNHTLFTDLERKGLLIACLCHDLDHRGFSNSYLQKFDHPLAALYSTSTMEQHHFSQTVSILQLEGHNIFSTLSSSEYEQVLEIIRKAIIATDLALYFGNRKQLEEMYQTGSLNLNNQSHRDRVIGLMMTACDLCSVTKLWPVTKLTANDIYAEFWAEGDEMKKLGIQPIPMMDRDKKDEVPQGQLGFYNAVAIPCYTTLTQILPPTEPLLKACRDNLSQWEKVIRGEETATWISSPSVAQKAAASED

As to `Cc1ncc(-c2ccc(=O)n(C)c2C)c(OC[C@H]2C[C@@H]2c2ccc3c(n2)CCC3)n1` [Example 58, 5-(4-(((1S,2S)-2-(6,7-dihydro-5H-cyclopenta[b]pyridin-2-yl)cyclopropyl)methoxy)-2-methylpyrimidin-5-yl)-1,6-dimethylpyridin-2(1H)-one], the Ki turned out to be 0.481 nM. With `Cc1ccc([C@H]2C[C@@H]2COc2nc(C)ncc2-c2cc(C#N)c(=O)n(C)c2C)nc1` [Example 59, 1,6-dimethyl-5-(2-methyl-4-(((1S,2S)-2-(5-methylpyridin-2-yl)cyclopropyl)methoxy)pyrimidin-5-yl)-2-oxo-1,2-dihydropyridine-3-carbonitrile], the Ki came out at 0.426 nM.

In the case of `COc1ccc([C@H]2C[C@@H]2COc2nc(C)ncc2-c2cc(C#N)c(=O)n(C)c2C)nc1` [Example 60, 5-(4-(((1S,2S)-2-(5-methoxypyridin-2-yl)cyclopropyl)methoxy)-2-methylpyrimidin-5-yl)-1,6-dimethyl-2-oxo-1,2-dihydropyridine-3-carbonitrile], the Ki came to 0.117 nM. The value for `COc1ccc([C@H]2C[C@@H]2COc2nc(C)ncc2-c2cn(C)c(=O)cn2)nc1` [Example 61, 5-(4-(((1S,2S)-2-(5-methoxypyridin-2-yl)cyclopropyl)methoxy)-2-methylpyrimidin-5-yl)-1-methylpyrazin-2(1H)-one] was 16.7 nM. The figure for `Cc1ccc([C@H]2C[C@@H]2COc2nc(C)ncc2-c2cn(C)c(=O)cn2)nc1` [Example 62, 1-methyl-5-(2-methyl-4-(((1S,2S)-2-(5-methylpyridin-2-yl)cyclopropyl)methoxy)pyrimidin-5-yl)pyrazin-2(1H)-one] is 12.9 nM; for `COc1ccc([C@H]2C[C@@H]2COc2nc(C)ncc2-c2ccc(=O)[nH]n2)nc1` [Example 63, 6-(4-(((1S,2S)-2-(5-methoxypyridin-2-yl)cyclopropyl)methoxy)-2-methylpyrimidin-5-yl)pyridazin-3(2H)-one] it is 4.42 nM; for `COc1ccc([C@H]2C[C@@H]2COc2nc(C)ncc2-c2ccc(=O)n(C)n2)nc1` [Example 64, 6-(4-(((1S,2S)-2-(5-methoxypyridin-2-yl)cyclopropyl)methoxy)-2-methylpyrimidin-5-yl)-2-methylpyridazin-3(2H)-one] it is 2.83 nM. On to `Cc1ccc([C@H]2C[C@@H]2COc2nc(C)ncc2-c2cc(C)c(=O)n(C)n2)nc1` [Example 65, 2,4-dimethyl-6-(2-methyl-4-(((1S,2S)-2-(5-methylpyridin-2-yl)cyclopropyl)methoxy)pyrimidin-5-yl)pyridazin-3(2H)-one], for which the Ki worked out at 1.83 nM.

`COc1ccc([C@H]2C[C@@H]2COc2nc(C)ncc2-c2cc(C)c(=O)n(C)n2)nc1` [Example 66, 6-(4-(((1S,2S)-2-(5-methoxypyridin-2-yl)cyclopropyl)methoxy)-2-methylpyrimidin-5-yl)-2,4-dimethylpyridazin-3(2H)-one]: the Ki came out at 1.23 nM. Consider `COc1ccc([C@H]2C[C@@H]2COc2nc(C)ncc2-c2nn(C)c(=O)cc2C)nc1` [Example 67, 6-(4-(((1S,2S)-2-(5-methoxypyridin-2-yl)cyclopropyl)methoxy)-2-methylpyrimidin-5-yl)-2,5-dimethylpyridazin-3(2H)-one], for which the Ki was determined as 5.55 nM. Turning to `Cc1ccc([C@H]2C[C@@H]2COc2nc(C)ncc2-c2nn(C)c(=O)cc2C)nc1` [Example 68, 2,5-dimethyl-6-(2-methyl-4-(((1S,2S)-2-(5-methylpyridin-2-yl)cyclopropyl)methoxy)pyrimidin-5-yl)pyridazin-3(2H)-one], the Ki is 9.68 nM. With `CCn1ccc(-c2cnc(C)nc2OC[C@H]2C[C@@H]2c2ccc(C)cn2)cc1=O` [Example 69, 1-ethyl-4-(2-methyl-4-(((1S,2S)-2-(5-methylpyridin-2-yl)cyclopropyl)methoxy)pyrimidin-5-yl)pyridin-2(1H)-one], the Ki amounted to 1.43 nM. As for `COc1ccc([C@H]2C[C@@H]2COc2nc(C)ncc2-c2ccn(C)c(=O)c2)nc1` [Example 70, 4-(4-(((1S,2S)-2-(5-methoxypyridin-2-yl)cyclopropyl)methoxy)-2-methylpyrimidin-5-yl)-1-methylpyridin-2(1H)-one], the Ki is 1.25 nM. The figure for `Cc1ccc([C@H]2C[C@@H]2COc2nc(C)ncc2-c2cc(=O)[nH]cc2C)nc1` [Example 71, 5-methyl-4-(2-methyl-4-(((1S,2S)-2-(5-methylpyridin-2-yl)cyclopropyl)methoxy)pyrimidin-5-yl)pyridin-2(1H)-one] is 1.01 nM. Regarding `Cc1ccc([C@H]2C[C@@H]2COc2nc(C)ncc2-c2cc(=O)n(C)cc2C)nc1` [Example 72, 1,5-dimethyl-4-(2-methyl-4-(((1S,2S)-2-(5-methylpyridin-2-yl)cyclopropyl)methoxy)pyrimidin-5-yl)pyridin-2(1H)-one], the inhibition constant Ki worked out at 2.16 nM. Consider `COc1ccc([C@H]2C[C@@H]2COc2nc(C)ncc2-c2cc(=O)n(C)cc2Cl)nc1` [Example 73, 5-chloro-4-(4-(((1S,2S)-2-(5-methoxypyridin-2-yl)cyclopropyl)methoxy)-2-methylpyrimidin-5-yl)-1-methylpyridin-2(1H)-one], for which the Ki worked out at 1.13 nM. The value for `Cc1ncc(-c2cc(=O)n(C)cc2C)c(OC[C@H]2C[C@@H]2c2ccccn2)n1` [Example 74, 1,5-dimethyl-4-(2-methyl-4-(((1S,2S)-2-(pyridin-2-yl)cyclopropyl)methoxy)pyrimidin-5-yl)pyridin-2(1H)-one] was 16.6 nM.

Take `Cc1ncc(-c2cc(=O)[nH]cc2C)c(OC[C@H]2C[C@@H]2c2ccccn2)n1` [Example 75, 5-methyl-4-(2-methyl-4-(((1S,2S)-2-(pyridin-2-yl)cyclopropyl)methoxy)pyrimidin-5-yl)pyridin-2(1H)-one]: the Ki is 8.38 nM. The value for `Cc1ncc(-c2cc(=O)n(C)cc2C)c(OC[C@H]2C[C@@H]2c2ccc3ccccc3n2)n1` [Example 76, 1,5-dimethyl-4-(2-methyl-4-(((1S,2S)-2-(quinolin-2-yl)cyclopropyl)methoxy)pyrimidin-5-yl)pyridin-2(1H)-one] was 0.035 nM. For the molecule `COc1ccc([C@H]2C[C@@H]2COc2nc(C)ncc2-c2cc(=O)[nH]cc2C)nc1` [Example 77, 4-(4-(((1S,2S)-2-(5-methoxypyridin-2-yl)cyclopropyl)methoxy)-2-methylpyrimidin-5-yl)-5-methylpyridin-2(1H)-one], the Ki turned out to be 0.612 nM. For the molecule `Cc1ccc([C@H]2C[C@@H]2COc2nc(C)ncc2-c2ccn(C)c(=O)c2)nc1` [Example 78, 1-methyl-4-(2-methyl-4-(((1S,2S)-2-(5-methylpyridin-2-yl)cyclopropyl)methoxy)pyrimidin-5-yl)pyridin-2(1H)-one], the Ki is 1.73 nM. The value for `Cc1ncc(-c2ccn(C)c(=O)c2)c(OC[C@H]2C[C@@H]2c2ccc3ccccc3n2)n1` [Example 79, 1-methyl-4-(2-methyl-4-(((1S,2S)-2-(quinolin-2-yl)cyclopropyl)methoxy)pyrimidin-5-yl)pyridin-2(1H)-one] was 0.03 nM; that for `Cc1ncc(-c2ccn(C)c(=O)c2)c(OC[C@H]2C[C@@H]2c2ccccn2)n1` [Example 80, 1-methyl-4-(2-methyl-4-(((1S,2S)-2-(pyridin-2-yl)cyclopropyl)methoxy)pyrimidin-5-yl)pyridin-2(1H)-one] was 10.8 nM. The figure for `Cc1ncc(-c2cc(=O)[nH]cc2C)c(OC[C@H]2C[C@@H]2c2ccc3ccccc3n2)n1` [Example 81, 5-methyl-4-(2-methyl-4-(((1S,2S)-2-(quinolin-2-yl)cyclopropyl)methoxy)pyrimidin-5-yl)pyridin-2(1H)-one] is 0.011 nM. The figure for `COc1ccc([C@H]2C[C@@H]2COc2nc(C)ncc2-c2cc(=O)n(C)cc2C)nc1` [Example 82, 4-(4-(((1S,2S)-2-(5-methoxypyridin-2-yl)cyclopropyl)methoxy)-2-methylpyrimidin-5-yl)-1,5-dimethylpyridin-2(1H)-one] is 0.496 nM; for `COc1ccc([C@H]2C[C@@H]2COc2nc(C)ncc2-c2cc(=O)[nH]cc2Cl)nc1` [Example 83, 5-chloro-4-(4-(((1S,2S)-2-(5-methoxypyridin-2-yl)cyclopropyl)methoxy)-2-methylpyrimidin-5-yl)pyridin-2(1H)-one] it is 0.39 nM. For `Cc1ncc(-c2ccn(C)c(=O)c2)c(OC[C@@H]2C[C@H]2c2ccc(F)cn2)n1` [Example 84, 4-(4-(((1R,2R)-2-(5-fluoropyridin-2-yl)cyclopropyl)methoxy)-2-methylpyrimidin-5-yl)-1-methylpyridin-2(1H)-one], the Ki came to 88.4 nM. The figure for `COCCn1ccc(-c2cnc(C)nc2OC[C@H]2C[C@@H]2c2ccc(C)cn2)cc1=O` [Example 85, 1-(2-methoxyethyl)-4-(2-methyl-4-(((1S,2S)-2-(5-methylpyridin-2-yl)cyclopropyl)methoxy)pyrimidin-5-yl)pyridin-2(1H)-one] is 0.439 nM; for `Cc1ccc([C@H]2C[C@@H]2COc2nc(C)ncc2-c2cc(C)n(C)c(=O)c2)nc1` [Example 86, 1,6-dimethyl-4-(2-methyl-4-(((1S,2S)-2-(5-methylpyridin-2-yl)cyclopropyl)methoxy)pyrimidin-5-yl)pyridin-2(1H)-one] it is 1.56 nM. In the case of `COc1ccc([C@H]2C[C@@H]2COc2nc(C)ncc2-c2cc(C)n(C)c(=O)c2)nc1` [Example 87, 4-(4-(((1S,2S)-2-(5-methoxypyridin-2-yl)cyclopropyl)mcthoxy)-2-methylpyrimidin-5-yl)-1,6-dimethylpyridin-2(1H)-one], the Ki is 0.785 nM. As for `Cc1ncc(-c2ccn(C)c(=O)c2)c(OC[C@H]2C[C@@H]2c2ccc(F)cn2)n1` [Example 88, 4-(4-(((1S,2S)-2-(5-fluoropyridin-2-yl)cyclopropyl)methoxy)-2-methylpyrimidin-5-yl)-1-methylpyridin-2(1H)-one], the Ki was 27.5 nM.
